Where two headings read alike, the source gives them in different places.
What was measured:
Format in all cases: cell-based, Periplaneta americana
[1] = tested on: cockroach Dorsal Unpaired Median (DUM) neurons; conditions: for origin of the intracellular calcium concentration rise: with caffeine, omegaconotoxin, pirenzepine
[2] = tested on: cockroach Dorsal Unpaired Median (DUM) neurons; test: Whole-cell patch-clamp, current-clamp: DUM neuron spontaneous electrical activity; conditions: IR3535 at 10^-8 M; whole-cell configuration
Method: (§1) Experiments were carried out on cockroach Dorsal Unpaired Median (DUM) neurons. Cockroach neuronal preparations are commonly used as biomedical models for vertebrates and invertebrates and DUM neurons are, furthermore, electrophysiologically and pharmacologically well characterized since most of the biophysical and pharmacological properties of ionic currents and receptors underlying and modulating their spontaneous action potentials have been established by using the well-known patch-clamp technique.
Adult male cockroaches, Periplaneta americana (see FIG. 1), are taken from our laboratory colonies, which are maintained under standard conditions (29° C., photoperiod of 12 h light/12 h dark). Animals are immobilized dorsal-side up on a dissection dish. The dorsal cuticle, gut and some dorso-longitudinal muscles are removed to allow access to the ventral nerve cord. The abdominal nerve cord and its terminal abdominal ganglion (TAG), carefully dissected under a binocular microscope, are placed in normal saline. Animal care and handling procedures are in accordance with French institutional and national health guidelines. […]
Electrical activity and neonicotinoïd-induced inward currents are recorded using the patch clamp technique in the whole-cell recording configuration under current-clamp and voltage-clamp mode, respectively. […] Signals are recorded with an Axopatch 200A amplifier. […]

[3] = tested on: cockroach Dorsal Unpaired Median (DUM) neurons; test: Whole-cell patch-clamp, voltage-clamp: neonicotinoïd-induced inward currents; conditions: for inward current amplitude after pretreatment with low concentration of IR3535 (conclusion): DUM neurons pretreated with low concentration of IR3535; for induced inward current, insecticide alone (conclusion): act like agonists
Method: as §1
Adult male cockroaches, Periplaneta americana (see FIG. 1), are taken from our laboratory colonies, which are maintained under standard conditions (29° C., photoperiod of 12 h light/12 h dark). Animals are immobilized dorsal-side up on a dissection dish. The dorsal cuticle, gut and some dorso-longitudinal muscles are removed to allow access to the ventral nerve cord. The abdominal nerve cord and its terminal abdominal ganglion (TAG), carefully dissected under a binocular microscope, are placed in normal saline. Animal care and handling procedures are in accordance with French institutional and national health guidelines.
The ventral nerve cord and its terminal abdominal ganglion (TAG) are carefully dissected under a binocular microscope and placed in normal cockroach saline containing (in mM) 200 NaCl, 3.1 KCl, 5 CaCl2, 4 MgCl2, 50 sucrose, and 10 […] (HEPES); pH was adjusted to 7.4 with NaOH. Isolation of adult DUM neuron cell bodies are performed under sterile conditions using enzymatic digestion and mechanical dissociation of the median parts of the TAG as previously described in Lapied et al. (Ionic species involved in the electrical activity of single adult aminergic neurones isolated from sixth abdominal ganglion of cockroach Periplaneta americana J Exp Biol 144:535-49, 1989). The isolated neuron cell bodies are used for recordings 24 h after dissociation.
Electrical activity and neonicotinoïd-induced inward currents are recorded using the patch clamp technique in the whole-cell recording configuration under current-clamp and voltage-clamp mode, respectively. Patch-clamp electrodes are pulled from borosilicate glass capillary tubes (GC150T-10) using a P-97 model puller. Patch pipettes have resistances ranging from 1 to 1.2 MΩ when filled with internal pipette solution. The liquid junction potential between extracellular and intracellular solutions is always corrected before the formation of a giga Ohm seal (>3 GΩ). Signals are recorded with an Axopatch 200A amplifier. […] Under voltage-clamp conditions, DUM neuron somata are voltage-clamped at a steady state holding potential of −50 mV to measure the effects of thiamethoxam or thiacloprid applied alone and after pretreatment with IR3535® (10^−8 M). Experiments are carried out at room temperature.

[4] = thiamethoxam 10^-6 M, pretreated with IR3535 10^-8 M

CCN(CC)C(=O)c1cccc(C)c1 [DEET, N,N-diethyl-3-methylbenzamide]
ratio of emitted fluorescence (340 nm/380 nm), maximum value ([1]; DEET at 10^-7 M (maximum)): 0.7
ratio of emitted fluorescence (340 nm/380 nm) ([1]; DEET between 3.10^-8 M and 3.10^-7 M): above 0.6
effect on intracellular calcium concentration, low concentration range ([1]; DEET from 10^-9 M to 10^-7 M): elevation of the intracellular calcium concentration
effect on intracellular calcium concentration, higher concentrations ([1]; DEET higher than 10^-7 M): important decrease of the intracellular calcium concentration
concentration giving the maximum elevation of intracellular calcium concentration ([1]; DEET low concentration range): 10^−7 M

CCCCN(CCC(=O)OCC)C(C)=O [IR3535®, 3-[N-Butyl-N-acetyl]-aminopropionic acid, ethyl ester]
lower concentration which produces a significant elevation of intracellular calcium concentration ([1]; DUM neurons): 10^−8 M
origin of the intracellular calcium concentration rise ([1]; IR3535 at 10^-8 M): extracellular calcium through plasma membrane voltage-dependent calcium channels via M1/M3 mAChR sub-type modulation
effect on intracellular calcium concentration, zone I ([1]; IR3535 between 3.10^-9 M and 3.10^-8 M, bath application): transient increase of intracellular calcium concentration
effect on intracellular calcium concentration, zone II ([1]; IR3535 from 10^-7 M to 3.10^-6 M): additional elevation of intracellular calcium concentration
origin of the intracellular calcium concentration rise ([1]; higher concentrations of IR3535 (10^-5 M)): both extracellular calcium and calcium released from internal stores
concentration giving the maximum of the zone I intracellular calcium increase ([1]; zone I (3.10^-9 M to 3.10^-8 M)): 10^−8 M
concentration giving the maximum effect on intracellular calcium, zone III ([1]; zone III, very high concentration): 3.10^−5 M
effect on membrane potential [2]: significant membrane depolarization
effect on spontaneous action potential discharge frequency [2]: increase of the spontaneous action potential discharge frequency

N#C/N=C1\SCCN1Cc1ccc(Cl)nc1 [thiacloprid]
concentration giving the maximum increase of inward current amplitude after IR3535 pretreatment ([3]; DUM neuron pretreated with IR3535 10^-8 M): 10^−6 M
inward current amplitude after pretreatment with low concentration of IR3535 (conclusion) [3]: more important
induced inward current, insecticide alone (conclusion) ([3]; alone): inward current with a small amplitude
concentration giving the maximum effect on inward current amplitude, applied alone ([3]; alone, holding potential -50 mV): 10^−3 M
effect on inward current amplitude, applied alone ([3]; bath application alone, holding potential -50 mV): dose-dependent increase of the inward current amplitude
effect on inward current amplitude at higher concentration after IR3535 pretreatment ([3]; thiacloprid 10^-5 M, pretreated with IR3535 10^-8 M): important decrease of the current amplitude

CN1COCN(Cc2cnc(Cl)s2)/C1=N\[N+](=O)[O-] [thiamethoxam]
induced inward current, applied alone ([3]; 10^-6 M alone, holding potential -50 mV, n=3-4): inward current with small amplitudes
inward current amplitude after pretreatment with low concentration of IR3535 (conclusion) [3]: more important
induced inward current, insecticide alone (conclusion) ([3]; alone): inward current with a small amplitude
effect of IR3535 pretreatment on induced inward current amplitude [3, 4]: important increase of the thiamethoxam-induced inward current amplitude
mean current amplitude after IR3535 pretreatment relative to applied alone [3, 4]: about 6 fold

From patent publication US10492491B2, “Insecticide composition including a synergistic agent” (priority 2015, dated 2019)
